Measurements published in ChEMBL document CHEMBL4619760, “Anti-inflammatory Efficacy of Combined Natural Alkaloid Berberine and S1PR Modulator Fingolimod at Low Doses in Ulcerative Colitis Preclinical Models” (J Nat Prod, 2020).
Active and inactive are the calls of the source. No cut-off for these calls is given here.

Columns and labels:
Mus musculus [1] = test: Anti-colitis activity against DSS-induced C57BL/6 mouse model of subchronic relapsing colitis assessed as effect on body weight at 40 mg/kg, po administered once daily for 14 days starting from day 5 post DSS challenge and measured after day 12 to day 18; assay type: functional, organism-based
Mus musculus [2] = test: Anti-colitis activity against DSS-induced C57BL/6 mouse model of subchronic relapsing colitis assessed as reduction in stool consistency scores at 40 mg/kg, po administered once daily for 14 days starting from day 5 post DSS challenge and measured on day 19; assay type: functional, organism-based
Mus musculus [3] = test: Anti-colitis activity against DSS-induced C57BL/6 mouse model of subchronic relapsing colitis assessed as reduction in stool bleeding scores at 40 mg/kg, po administered once daily for 14 days starting from day 5 post DSS challenge and measured on day 19; assay type: functional, organism-based
Mus musculus [4] = test: Anti-colitis activity against DSS-induced C57BL/6 mouse model of subchronic relapsing colitis assessed as reduction in disease activity index at 40 mg/kg, po administered once daily for 14 days starting from day 5 post DSS challenge and measured on day 19; assay type: functional, organism-based
Mus musculus [5] = test: Anti-colitis activity against DSS-induced C57BL/6 mouse model of subchronic relapsing colitis assessed as reduction in DSS-induced colon shortening at 40 mg/kg, po administered once daily for 14 days starting from day 5 post DSS-challenge; assay type: functional, organism-based
Mus musculus [6] = test: Anti-colitis activity against DSS-induced C57BL/6 mouse model of subchronic relapsing colitis assessed as reduction in colon swelling at 40 mg/kg, po administered once daily for 14 days starting from day 5 post DSS-challenge; assay type: functional, organism-based
Mus musculus [7] = test: Anti-colitis activity against DSS-induced C57BL/6 mouse model of subchronic relapsing colitis assessed as reduction in spleen swelling at 40 mg/kg, po administered once daily for 14 days starting from day 5 post DSS-challenge; assay type: functional, organism-based
Mus musculus [8] = test: Anti-colitis activity against DSS-induced C57BL/6 mouse model of chronic relapsing colitis assessed as reduction in stool consistency score at 40 mg/kg, po administered once daily for 30 days starting from day 13 post DSS-challenge measured on day 24; assay type: functional, organism-based
Mus musculus [9] = test: Anti-colitis activity against DSS-induced C57BL/6 mouse model of chronic relapsing colitis assessed as reduction in stool bleeding at 40 mg/kg, po administered once daily for 30 days starting from day 13 post DSS-challenge measured on day 38; assay type: functional, organism-based
Mus musculus [10] = test: Anti-colitis activity against DSS-induced C57BL/6 mouse model of chronic relapsing colitis assessed as reduction in disease activity index at 40 mg/kg, po administered once daily for 30 days starting from day 13 post DSS-challenge and measured on day 24; assay type: functional, organism-based
Mus musculus [11] = test: Anti-colitis activity against DSS-induced C57BL/6 mouse model of chronic relapsing colitis assessed as reduction in stool consistency score at 40 mg/kg, po administered once daily for 30 days starting from day 13 post DSS-challenge measured on day 43; assay type: functional, organism-based
Mus musculus [12] = test: Anti-colitis activity against DSS-induced C57BL/6 mouse model of chronic relapsing colitis assessed as reduction in stool bleeding at 40 mg/kg, po administered once daily for 30 days starting from day 13 post DSS-challenge measured on day 43; assay type: functional, organism-based
Mus musculus [13] = test: Anti-colitis activity against DSS-induced C57BL/6 mouse model of chronic relapsing colitis assessed as reduction in disease activity index at 40 mg/kg, po administered once daily for 30 days starting from day 13 post DSS-challenge and measured on day 43; assay type: functional, organism-based
Mus musculus [14] = test: Anti-colitis activity against DSS-induced C57BL/6 mouse model of chronic relapsing colitis assessed as reversal of DSS-induced colon shortening at 40 mg/kg, po administered once daily for 30 days starting from day 13 post DSS-challenge; assay type: functional, organism-based
Mus musculus [15] = test: Anti-colitis activity against DSS-induced C57BL/6 mouse model of subchronic relapsing colitis assessed as reduction in DSS-induced colon swelling at 40 mg/kg, po administered once daily for 30 days starting from day 13 post DSS-challenge; assay type: functional, organism-based
Mus musculus [16] = test: (§1) Anti-colitis activity against DSS-induced C57BL/6 mouse model of chronic relapsing colitis assessed as reduction in DSS-induced multiple erosive lesions in colon at 40 mg/kg, po administered once daily for 30 days starting from day 13 post DSS-challenge by hematoxylin and eosin staining based light microscopic analysis; assay type: functional, organism-based
Mus musculus [17] = test: as §1, with “loss of” for “multiple erosive lesions in”, “colon crypt and columnar epithelium” for “colon”; assay type: functional, organism-based
Mus musculus [18] = test: as §1, with “inflammatory cell infiltration” for “multiple erosive lesions in colon”; assay type: functional, organism-based
[19] = Toxicity in DSS-induced C57BL/6 mouse model of chronic relapsing colitis assessed as induction of abnormalities in heart at 40 mg/kg, po administered once daily for 30 days starting from day 13 post DSS-challenge by hematoxylin and eosin staining based light microscopic analysis; assay type: organism-based; conditions: in vivo, 720 h
[20] = Toxicity in DSS-induced C57BL/6 mouse model of chronic relapsing colitis assessed as induction of abnormalities in liver at 40 mg/kg, po administered once daily for 30 days starting from day 13 post DSS-challenge by hematoxylin and eosin staining based light microscopic analysis; assay type: organism-based; conditions: in vivo, 720 h
[21] = Toxicity in DSS-induced C57BL/6 mouse model of chronic relapsing colitis assessed as induction of abnormalities in kidney at 40 mg/kg, po administered once daily for 30 days starting from day 13 post DSS-challenge by hematoxylin and eosin staining based light microscopic analysis; assay type: organism-based; conditions: in vivo, 720 h
[22] = Toxicity in DSS-induced C57BL/6 mouse model of chronic relapsing colitis assessed as induction of abnormalities in brain at 40 mg/kg, po administered once daily for 30 days starting from day 13 post DSS-challenge by hematoxylin and eosin staining based light microscopic analysis; assay type: organism-based; conditions: in vivo, 720 h
[23] = Toxicity in DSS-induced C57BL/6 mouse model of chronic relapsing colitis assessed as induction of abnormalities in lung at 40 mg/kg, po administered once daily for 30 days starting from day 13 post DSS-challenge by hematoxylin and eosin staining based light microscopic analysis; assay type: organism-based; conditions: in vivo, 720 h
Mus musculus [24] = test: Antiinflammatory activity against DSS-induced C57BL/6 mouse model of subchronic relapsing colitis assessed as reduction in IL17 mRNA level at 40 mg/kg, po administered once daily for 14 days starting from day 5 post DSS-challenge by RT-qPCR analysis; assay type: functional, organism-based
Mus musculus [25] = test: Antiinflammatory activity against DSS-induced C57BL/6 mouse model of subchronic relapsing colitis assessed as reduction in TNFalpha mRNA level at 40 mg/kg, po administered once daily for 14 days starting from day 5 post DSS-challenge by RT-qPCR analysis; assay type: functional, organism-based
Mus musculus [26] = test: Antiinflammatory activity against DSS-induced C57BL/6 mouse model of subchronic relapsing colitis assessed as reduction in IL6 mRNA level at 40 mg/kg, po administered once daily for 14 days starting from day 5 post DSS-challenge by RT-qPCR analysis; assay type: functional, organism-based
Mus musculus [27] = test: Antiinflammatory activity against DSS-induced C57BL/6 mouse model of subchronic relapsing colitis assessed as reduction in S1PR1 mRNA level at 40 mg/kg, po administered once daily for 14 days starting from day 5 post DSS-challenge by RT-qPCR analysis; assay type: functional, organism-based
Mus musculus [28] = test: Anti-colitis activity against DSS-induced C57BL/6 mouse model of subchronic relapsing colitis assessed as reduction in phosphorylated STAT3 level at 40 mg/kg, po administered once daily for 14 days starting from day 5 post DSS-challenge by Western blot analysis; assay type: functional, organism-based
Mus musculus [29] = test: Effect on total STAT3 expression in DSS-induced C57BL/6 mouse model of subchronic relapsing colitis at 40 mg/kg, po administered once daily for 14 days starting from day 5 post DSS-challenge by Western blot analysis; assay type: ADME, organism-based; conditions: in vivo, 336 h
Mus musculus [30] = test: Effect on total S1PR1 expression in DSS-induced C57BL/6 mouse model of subchronic relapsing colitis at 40 mg/kg, po administered once daily for 14 days starting from day 5 post DSS-challenge by Western blot analysis; assay type: ADME, organism-based; conditions: in vivo, 336 h
THP-1 [31] = test: Antiinflammatory activity in human THP1 cells assessed as reduction in LPS-induced IL6 mRNA level at 1 uM incubated for 1 hr followed by LPS challenge and measured after 4 to 6 hrs by q-PCR method; assay type: functional, cell-based
THP-1 [32] = test: Antiinflammatory activity in human THP1 cells assessed as reduction in LPS-induced TNFalpha mRNA level at 1 uM incubated for 1 hr followed by LPS challenge and measured after 4 to 6 hrs by q-PCR method; assay type: functional, cell-based
[33] = biological target: Signal transducer and activator of transcription 3 (Homo sapiens) (UniProt P40763); test: Inhibition of STAT3 activation in human THP1 cells assessed as reduction in LPS-induced phosphorylated STAT3 expression at 1 uM incubated for 1 hr followed by LPS challenge and measured after 4 to 6 hrs by Western blot analysis; assay type: cell-based; conditions: THP-1
Chain of Signal transducer and activator of transcription 3 (Homo sapiens) (P40763 whole entry): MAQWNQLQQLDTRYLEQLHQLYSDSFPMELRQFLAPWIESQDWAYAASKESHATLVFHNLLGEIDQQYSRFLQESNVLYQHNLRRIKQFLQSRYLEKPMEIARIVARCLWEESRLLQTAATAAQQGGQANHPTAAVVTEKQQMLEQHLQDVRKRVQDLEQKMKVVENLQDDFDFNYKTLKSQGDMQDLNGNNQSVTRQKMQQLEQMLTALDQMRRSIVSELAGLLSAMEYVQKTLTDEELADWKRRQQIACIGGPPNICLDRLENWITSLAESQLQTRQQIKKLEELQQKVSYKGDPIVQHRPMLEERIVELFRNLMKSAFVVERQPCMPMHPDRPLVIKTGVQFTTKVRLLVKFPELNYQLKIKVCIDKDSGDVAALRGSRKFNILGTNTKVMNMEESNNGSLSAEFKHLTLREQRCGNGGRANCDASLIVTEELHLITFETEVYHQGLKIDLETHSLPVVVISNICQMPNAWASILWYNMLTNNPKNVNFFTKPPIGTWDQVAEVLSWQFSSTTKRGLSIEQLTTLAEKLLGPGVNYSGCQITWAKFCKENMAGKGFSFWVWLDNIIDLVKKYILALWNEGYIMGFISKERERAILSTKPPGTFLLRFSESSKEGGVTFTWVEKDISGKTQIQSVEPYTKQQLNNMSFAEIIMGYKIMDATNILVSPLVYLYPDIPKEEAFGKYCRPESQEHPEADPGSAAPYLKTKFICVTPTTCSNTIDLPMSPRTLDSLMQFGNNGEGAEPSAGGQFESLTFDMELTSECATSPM

[34] = biological target: Signal transducer and activator of transcription 3 (Homo sapiens) (UniProt P40763); test: Inhibition of STAT3 activation in human THP1 cells assessed as reduction in LPS-induced phosphorylated STAT3 expression at 0.5 uM cotreated with 0.5 uM berberine incubated for 1 hr followed by LPS challenge and measured after 4 to 6 hrs by Western blot analysis; assay type: cell-based; conditions: THP-1

With `COc1ccc2cc3[n+](cc2c1OC)CCc1cc2c(cc1-3)OCO2.[Cl-]` [BERBERINE CHLORIDE] the Activity (Mus musculus [1]) was “inactive”, the Activity (Mus musculus [2]) was “Active” and the Activity (Mus musculus [3]) was “Active”. The Activity (Mus musculus [4]) was “Active”, the Activity (Mus musculus [5]) was “Active” and the Activity (Mus musculus [6]) was “inactive”. For the same compound, the Activity (Mus musculus [7]) was “inactive”, the Activity (Mus musculus [8]) was “Active” and the Activity (Mus musculus [9]) was “Active”. For the same compound, the Activity (Mus musculus [10]) was “Active”, the Activity (Mus musculus [11]) was “Active” and the Activity (Mus musculus [12]) was “Active”. The Activity (Mus musculus [13]) was “Active”, the Activity (Mus musculus [14]) was “Active” and the Activity (Mus musculus [15]) was “inactive”. The Activity (Mus musculus [16]) was “Active”, the Activity (Mus musculus [17]) was “Active” and the Activity (Mus musculus [18]) was “Active”. For the same compound, the Activity [19] was “Non-Toxic”, the Activity [20] was “Non-Toxic” and the Activity [21] was “Non-Toxic”. For the same compound, the Activity [22] was “Non-Toxic”, the Activity [23] was “Non-Toxic” and the Activity (Mus musculus [24]) was “Active”. The Activity (Mus musculus [25]) was “Active”, the Activity (Mus musculus [26]) was “Active” and the Activity (Mus musculus [27]) was “inactive”. For the same compound, the Activity (Mus musculus [28]) was “Active”, the Activity (Mus musculus [29]) was “Non-Toxic” and the Activity (Mus musculus [30]) was “Non-Toxic”. For the same compound, the Activity (THP-1 [31]) was “Active”, the Activity (THP-1 [32]) was “Active” and the inhibition [33] was “Active”. The inhibition [34] was “Active”.
